# Assay results published in patent US20250326748A1, “COMPOUNDS AND METHODS FOR MODULATING SPLICING” (REMIX THERAPEUTICS INC., priority 2022, published 2025).
# Structures can show the parent of a compound that is named as a salt.
# Tests used:
# Type in all cases: cell-based, human
# [1] = system: HiBiT-tagged MYB protein; assay: HiBiT protein abundance assay, MYB (K562 HiBiT knock-in); settings: HiBiT knock-in cells, 24 hours
# Procedure, shortened: (§1)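 Endogenously HiBiT-tagged K562 knock-in lines treated 24 h at 37 °C with 10-point 3-fold dilutions (top 10 μM final, DMSO ≤0.25%) in IMDM+1% FBS. Lytic Nano-Glo luminescence normalized to DMSO and unmodified K562 controls; four-parameter fit gives 50%-abundance concentration (IC50).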
# [2] = system: HiBiT-tagged HTT protein; assay: HiBiT protein abundance assay, HTT (K562 HiBiT knock-in); settings: HiBiT knock-in cells, 24 hours
# Procedure, shortened: as §1
# [3] = system: Target C; assay: HiBiT protein abundance assay, Target C (K562 HiBiT knock-in); settings: HiBiT knock-in cells, 24 hours
# Procedure, shortened: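 K562 HiBiT knock-in cells (10000/well) in IMDM + 1% FBS were treated for 24 h at 37° C. with a 10-point 3-fold dilution series (top 10 μM final), with DMSO ≤0.25%. Unmodified K562 served as baseline. HiBiT lytic luminescence was normalized to controls, and IC50 was interpolated at 50% from a four-parameter fit.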
# [4] = system: Target C mRNA; assay: Splicing RT-qPCR panel, Target C canonical junction (CJ) mRNA; settings: Homo sapiens, read-out: Target C CJ (decrease in CJ mRNA levels, IC50)
# Procedure, shortened: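 A673 cells (DMEM, 10% FBS) or K562 cells (IMDM, 10% FBS) treated 24 h at 37 °C with an 11-point 3-fold dilution, top 10 uM, DMSO ≤0.25%. Canonical-junction mRNA quantified in lysates by RT-qPCR, normalised to GAPDH, GUSB or PPIA and to DMSO (2^−ΔΔCt), then converted to % response.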
IC50 [1] [nM],IC50 [2] [nM],IC50 [3] [nM],IC50 [4] [nM],Compound
< 100,100 to 1000,100 to 1000,100 to 1000,C[C@H]1CN(c2cnc3nc(-c4cc(F)c5nn(C)cc5c4)cc(Cl)c3c2)C[C@H](C)N1 [Compound 250]
100 to 1000,1000 to 10000,1000 to 10000,> 10000,C[C@@H]1CN(c2cnc3nc(-c4cc(F)c5nn(C)cc5c4)cc(Cl)c3c2)C[C@@H](C)N1 [Compound 251]
> 10000,> 10000,1000 to 10000,100 to 1000,"Cc1c(O)c(-c2cc(-c3nnc[nH]3)c3cc(N4C[C@@H](C)N[C@@H](C)C4)cnc3n2)cc2cn(C)nc12 [Compound 261, 5-{6-[(3R,5S)-3,5-dimethylpiperazin-1-yl]-4-(4H-1,2,4-triazol-3-yl)-1,8-naphthyridin-2-yl}-2,7-dimethylindazol-6-ol]"
< 100,100 to 1000,1000 to 10000,1000 to 10000,"C[C@@H]1CN(c2cnc3nc(-c4cc5cn(C)nc5c(F)c4O)cc(C#N)c3c2)C[C@H](C)N1 [Compound 266, 6-[(3R,5S)-3,5-dimethylpiperazin-1-yl]-2-(7-fluoro-6-hydroxy-2-methylindazol-5-yl)-1,8-naphthyridine-4-carbonitrile hydrochloride]"
< 100,< 100,< 100,< 100,CN[C@@H]1CCN(c2cnc3nc(-c4cc5cn(C)nc5c(F)c4O)cc(Cl)c3c2)C1 [Compound 271]
